Experiments:
[1] = tested on: brain tissue; assay: Brain distribution of Cy5.5 fluorescence after icv infusion; assay type: in vivo; conditions: mice, 30 min after icv injection of 4 μg
From the text: Adult male C57B/6J mice (10-weeks old) were deeply anesthetized by inhalation of 4% isoflurane and anaesthesia was maintained with 2% isoflurane administered at 0.2 l/min through a nasal cone. Mice were secured in a stereotaxic frame and an incision made to expose the skull, which was cleaned with 6% hydrogen peroxide. Two 1 mm-diameter holes were drilled in the skull on either side of the sagittal midline, 3 mm posterior and 3 mm lateral to bregma, to allow small screws (3 mm long) to be secured in order to anchor the guide cannula in place. A third hole of 1 mm in diameter was drilled through the skull to allow implantation of a stainless-steel guide cannula (11 mm long, 24 gauge) just above the lateral ventricle at the coordinates relative to bregma: anterior-posterior −0.46 mm; medial-lateral −0.8 mm; dorsal-ventral −1.8 mm. The guide cannula and screws were fixed in place by application of self-curing acrylic dental cement (Vertex-Dental, the Netherlands). […]
Following peptide infusion, mice were placed back in their clear-walled home cages for 30 min with access to water (and food) and filmed through the side of the cage for subsequent assessment of behavior. […] Sections were viewed and images collected using a confocal laser scanning microscope, using laser light at λ of 633 nm, while light between λ of 650–750 nm was detected.

[2] = target: T1, RXFP2 (Homo sapiens, UniProt Q8WXD0); assay: cAMP reporter gene assay (pCRE β-galactosidase); conditions: cell-based assay, HEK-293T RXFP2
T1 construct: expressed in transfected cells; host or cells: HEK-293T (co-transfected with pCRE β-galactosidase reporter)
Description: The ability of the Cy5.5-labeled insulin/relaxin family peptide analogs to stimulate cAMP production was evaluated using a cAMP reporter gene assay as described (Scott et al., [2006]). HEK-293T cells co-transfected with either RXFP1 or RXFP2 and a pCRE β-galactosidase reporter plasmid were plated in 96-well plates (Chen et al., [1995]). After 24 h, the co-transfected cells were incubated with increasing concentrations of relaxin analogs in parallel to 10 nM of H2 relaxin or INSL3 for RXFP1- or RXFP2- transfected cells, respectively. The amount of cAMP-driven β-galactosidase expression in each well was assessed with a colormetric assay measuring absorbance at 570 nm on a microplate spectrophotometer. Ligand-induced cAMP stimulation was expressed as a percentage of maximal response of H2 relaxin or INSL3 for RXFP1 and RXFP2 cells, respectively. Each data point was measured in triplicate and each experiment conducted independently at least three separate times. Statistical differences in pEC50 values were analyzed using One-Way ANOVA coupled to the Newman Keul's multiple comparison test for multiple group comparisons in GraphPad Prism 4.

[3] = tested on: central RXFP1 activation (water drinking); assay: Drinking (dipsogenic) response after icv infusion; assay type: in vivo; conditions: adult male C57B/6J mice; single 4 μg dose icv in 4 μl aCSF; n = 3–4; observed 30 min
From the text: Adult male C57B/6J mice (10-weeks old) were deeply anesthetized by inhalation of 4% isoflurane and anaesthesia was maintained with 2% isoflurane administered at 0.2 l/min through a nasal cone. Mice were secured in a stereotaxic frame and an incision made to expose the skull, which was cleaned with 6% hydrogen peroxide. Two 1 mm-diameter holes were drilled in the skull on either side of the sagittal midline, 3 mm posterior and 3 mm lateral to bregma, to allow small screws (3 mm long) to be secured in order to anchor the guide cannula in place. A third hole of 1 mm in diameter was drilled through the skull to allow implantation of a stainless-steel guide cannula (11 mm long, 24 gauge) just above the lateral ventricle at the coordinates relative to bregma: anterior-posterior −0.46 mm; medial-lateral −0.8 mm; dorsal-ventral −1.8 mm. The guide cannula and screws were fixed in place by application of self-curing acrylic dental cement (Vertex-Dental, the Netherlands).
After 5–10 days recovery post-surgery, mice were gently restrained and an injector was inserted through the guide cannula which protruded 0.5 mm into the lateral ventricle. A single 4 μg dose of each peptide (n = 3–4) was delivered in 4 μ l of artificial CSF (aCSF; 147 mM NaCl, 4 mM KCl, 0.85 mM MgCl2, and 2.3 mM CaCl2), over 1 min via a 10 μ l syringe (0.46 mm diameter) mounted on an infusion pump connected to the injector via polyethylene tubing. Following infusion, the injector was left in place for a further 15 s to prevent backflow of the infused peptide up the guide cannula.
Following peptide infusion, mice were placed back in their clear-walled home cages for 30 min with access to water (and food) and filmed through the side of the cage for subsequent assessment of behavior. After 30 min, mice were killed by isoflurane inhalation overdose, decapitated, and brains were removed and “post-fixed” by immersion in chilled 4% PFA solution. […] Sections were viewed and images collected using a confocal laser scanning microscope, using laser light at λ of 633 nm, while light between λ of 650–750 nm was detected.

T1 sequence (Q8WXD0 whole entry, species assumed): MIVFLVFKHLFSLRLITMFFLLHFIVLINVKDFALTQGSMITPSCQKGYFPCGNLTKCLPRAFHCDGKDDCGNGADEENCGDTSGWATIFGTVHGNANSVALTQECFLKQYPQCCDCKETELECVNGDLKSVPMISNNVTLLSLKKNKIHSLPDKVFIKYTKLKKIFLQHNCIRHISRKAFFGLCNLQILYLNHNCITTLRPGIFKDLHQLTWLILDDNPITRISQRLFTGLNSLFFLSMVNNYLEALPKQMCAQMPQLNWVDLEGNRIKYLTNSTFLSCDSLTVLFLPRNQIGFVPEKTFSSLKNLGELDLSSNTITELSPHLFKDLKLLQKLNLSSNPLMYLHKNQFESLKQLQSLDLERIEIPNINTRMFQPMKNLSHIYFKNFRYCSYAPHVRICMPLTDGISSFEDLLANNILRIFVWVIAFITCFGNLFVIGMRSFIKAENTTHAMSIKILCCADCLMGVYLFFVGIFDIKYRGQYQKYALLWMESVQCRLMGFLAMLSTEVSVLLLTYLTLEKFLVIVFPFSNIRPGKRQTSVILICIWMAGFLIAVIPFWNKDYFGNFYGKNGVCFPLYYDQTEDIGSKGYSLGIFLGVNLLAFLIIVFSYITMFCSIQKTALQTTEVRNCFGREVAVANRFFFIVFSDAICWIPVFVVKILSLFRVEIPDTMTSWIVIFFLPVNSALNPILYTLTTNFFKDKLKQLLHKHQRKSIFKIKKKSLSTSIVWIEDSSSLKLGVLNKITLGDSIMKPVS

Row | Structure (SMILES) | Distance from the ventricle wall beyond which little or no Cy5.5 fluorescence was seen ([1]; confocal microscopy) [μm] | Distribution of Cy5.5 fluorescence in brain (in words) ([1]; confocal microscopy of 40 μm coronal sections) | Activation of RXFP2 (in words) [2] | Drinking behavior after icv infusion (in words) [3]
1 | CCCC[N+]1=C(C=CC=CC=C2N(CCCCCC(=O)NCCCn3cc(C[C@H](N)C(=O)N[C@@H](CC(=O)O)C(=O)N[C@@H](CO)C(=O)N[C@@H](Cc4c[nH]c5ccccc45)C(=O)N[C@@H](CCSC)C(=O)N[C@@H](CCC(=O)O)C(=O)N[C@@H](CCC(=O)O)C(=O)N[C@H](C(=O)N[C@H](C(=O)N[C@@H](CCCCN)C(=O)N[C@@H](CC(C)C)C(=O)N[C@H]4CSSC[C@@H]5NC(=O)[C@@H](NC(=O)[C@H](CCCCN)NC(=O)[C@H](CC(N)=O)NC(=O)[C@H](C)NC(=O)[C@H](CC(C)C)NC(=O)[C@H](C)NC(=O)[C@H](CO)NC(=O)[C@H](Cc6ccc(O)cc6)NC(=O)[C@H](CC(C)C)NC(=O)[C@@H]6CCC(=O)N6)CSSC[C@H](NC(=O)CNC(=O)[C@H](C(C)C)NC(=O)[C@H](Cc6c[nH]cn6)NC5=O)C(=O)N[C@@H]([C@@H](C)O)C(=O)N[C@@H](CCCCN)C(=O)N[C@@H](CCCNC(=N)N)C(=O)N[C@@H](CO)C(=O)N[C@@H](CC(C)C)C(=O)N[C@@H](C)C(=O)N[C@@H](CCCNC(=N)N)C(=O)N[C@@H](Cc5ccccc5)C(=O)N[C@H](C(=O)O)CSSC[C@@H](C(=O)NCC(=O)N[C@@H](CCSC)C(=O)N[C@@H](CO)C(=O)N[C@H](C(=O)N[C@@H](Cc5c[nH]c6ccccc56)C(=O)N[C@@H](CO)C(=O)O)[C@@H](C)O)NC(=O)[C@H]([C@@H](C)CC)NC(=O)[C@H](C)NC(=O)[C@H]([C@@H](C)CC)NC(=O)[C@H](CCC(N)=O)NC(=O)[C@H](C)NC(=O)[C@H](CCCNC(=N)N)NC(=O)[C@H](C(C)C)NC(=O)[C@H](CC(C)C)NC(=O)[C@H](CCC(=O)O)NC(=O)[C@H](CCCNC(=N)N)NC(=O)CNC4=O)[C@@H](C)CC)C(C)C)nn3)c3ccc4ccccc4c3C2(C)C)C(C)(C)c2c1ccc1ccccc21 [Cy5.5-H2 relaxin] | > 300 | high levels of Cy5.5 were present within the ventricle wall and brain tissue proximal to the major cerebral ventricles | activated | stimulated a similar increase in drinking behavior
2 | CCCC[N+]1=C(C=CC=CC=C2N(CCCCCC(=O)NCCCn3cc(C[C@H](N)C(=O)N[C@@H](CC(=O)O)C(=O)N[C@@H](CO)C(=O)N[C@@H](Cc4c[nH]c5ccccc45)C(=O)N[C@@H](CCSC)C(=O)N[C@@H](CCC(=O)O)C(=O)N[C@@H](CCC(=O)O)C(=O)N[C@H](C(=O)N[C@H](C(=O)N[C@@H](CCCCN)C(=O)N[C@@H](CC(C)C)C(=O)N[C@H]4CSSC[C@@H]5NC(=O)[C@@H](NC(=O)[C@H](CCCCN)NC(=O)[C@H](CC(N)=O)NC(=O)[C@H](C)NC(=O)[C@H](CC(C)C)NC(=O)[C@H](C)NC(=O)[C@@H](N)CO)CSSC[C@H](NC(=O)CNC(=O)[C@H](C(C)C)NC(=O)[C@H](Cc6c[nH]cn6)NC5=O)C(=O)N[C@@H]([C@@H](C)O)C(=O)N[C@@H](CCCCN)C(=O)N[C@@H](CCCNC(=N)N)C(=O)N[C@@H](CO)C(=O)N[C@@H](CC(C)C)C(=O)N[C@@H](C)C(=O)N[C@@H](CCCNC(=N)N)C(=O)N[C@@H](C)C(=O)N[C@H](C(=O)O)CSSC[C@@H](C(=O)NCC(=O)N[C@@H](CCSC)C(=O)N[C@@H](CO)C(=O)N[C@H](C(=O)N[C@@H](Cc5c[nH]c6ccccc56)C(=O)N[C@@H](CO)C(=O)O)[C@@H](C)O)NC(=O)[C@H]([C@@H](C)CC)NC(=O)[C@H](C)NC(=O)[C@H]([C@@H](C)CC)NC(=O)[C@H](CCC(N)=O)NC(=O)[C@H](C)NC(=O)[C@H](CCCNC(=N)N)NC(=O)[C@H](C(C)C)NC(=O)[C@H](CC(C)C)NC(=O)[C@H](CCC(=O)O)NC(=O)[C@H](CCCNC(=N)N)NC(=O)CNC4=O)[C@@H](C)CC)C(C)C)nn3)c3ccc4ccccc4c3C2(C)C)C(C)(C)c2c1ccc1ccccc21 [Cy5.5-H2:A(4-24)(F23A)] | – | – | – | stimulated a similar increase in drinking behavior
3 | CCCC[N+]1=C(C=CC=CC=C2N(CCCCCC(=O)NCCCn3cc(C[C@H](N)C(=O)N4CCC[C@H]4C(=O)N[C@H](C(=O)N4CCC[C@H]4C(=O)N[C@@H](CCC(=O)O)C(=O)N[C@@H](CCSC)C(=O)N[C@@H](CCCNC(=N)N)C(=O)N[C@@H](CCC(=O)O)C(=O)N[C@@H](CCCCN)C(=O)N[C@@H](CC(C)C)C(=O)N[C@H]4CSSC[C@@H]5NC(=O)[C@@H](NC(=O)[C@H](Cc6ccc(O)cc6)NC(=O)[C@H](CCCNC(=N)N)NC(=O)[C@H](C)NC(=O)[C@@H]6CCCN6C(=O)[C@H](CC(N)=O)NC(=O)[C@@H](NC(=O)[C@H](C)NC(=O)[C@H](C)NC(=O)[C@H](C)N)[C@@H](C)O)CSSC[C@H](NC(=O)CNC(=O)[C@H](CO)NC(=O)[C@H](CC(C)C)NC5=O)C(=O)N[C@@H]([C@@H](C)O)C(=O)N[C@@H](CCC(N)=O)C(=O)N[C@@H](CCC(N)=O)C(=O)N[C@@H](CC(=O)O)C(=O)N[C@@H](CC(C)C)C(=O)N[C@@H](CC(C)C)C(=O)N[C@@H]([C@@H](C)O)C(=O)N[C@@H](CC(C)C)C(=O)N[C@H](C(=O)N5CCC[C@H]5C(=O)N[C@@H](Cc5ccc(O)cc5)C(=O)O)CSSC[C@@H](C(=O)NCC(=O)NCC(=O)N5CCC[C@H]5C(=O)N[C@@H](CCCNC(=N)N)C(=O)N[C@@H](Cc5c[nH]c6ccccc56)C(=O)N[C@@H](CO)C(=O)N[C@H](C(=O)N[C@@H](CCC(=O)O)C(=O)N[C@@H](C)C(=O)O)[C@@H](C)O)NC(=O)[C@H](C(C)C)NC(=O)[C@H](CCCNC(=N)N)NC(=O)[C@H](C(C)C)NC(=O)[C@H](CC(C)C)NC(=O)[C@H](C)NC(=O)[C@H](CCCNC(=N)N)NC(=O)[C@H](C(C)C)NC(=O)[C@H](Cc5ccccc5)NC(=O)[C@H](Cc5c[nH]cn5)NC(=O)[C@H](Cc5c[nH]cn5)NC(=O)CNC4=O)[C@@H](C)O)nn3)c3ccc4ccccc4c3C2(C)C)C(C)(C)c2c1ccc1ccccc21 [Cy5.5-INSL3] | – | – | – | did not initiate a drinking response

Source: publication PMC3982560, “Synthesis of fluorescent analogs of relaxin family peptides and their preliminary in vitro and in vivo characterization” (Frontiers in Chemistry, 2013)
